Reference: patent US20260283922A1, “Particles of Hydrophobic-Chain-Modified Monosaccharides and Cyclodextrin” (PARIS SCIENCES ET LETTRES, priority 2023, published 2026)

Key:
[1] = Thermogravimetric analysis; type: physicochemical; settings: α-CD value at 420° C.
Method: The thermal behavior of ML/α-CD at 5 mg·mL^−1 and 70 mg·mL^−1 respectively and uncomplexed α-CD were studied using thermogravimetric analysis (FIG. 14).

Solubility study of ML = type: physicochemical; settings: without α-CD, before stirring
Method: The solubility study of ML was carried out in water, methanol and methanol/chloroform mixture 1/1 v/v. In 10 mL glass vials, 10 mg of ML were added to 500 μL of solvent and left under magnetic stirring at 300 rpm at 25° C.

solubility of ML in water (Solubility study of ML)	Compound	residual mass percentage [1] [%]
	OC[C@H]1O[C@@H]2O[C@H]3[C@H](O)[C@@H](O)[C@@H](O[C@H]4[C@H](O)[C@@H](O)[C@@H](O[C@H]5[C@H](O)[C@@H](O)[C@@H](O[C@H]6[C@H](O)[C@@H](O)[C@@H](O[C@H]7[C@H](O)[C@@H](O)[C@@H](O[C@H]1[C@H](O)[C@H]2O)O[C@@H]7CO)O[C@@H]6CO)O[C@@H]5CO)O[C@@H]4CO)O[C@@H]3CO [α-CD, alpha-cyclodextrin]	0
insoluble	CCCCCCCCCCCCCCCCCC(=O)NCCCO[C@H]1O[C@H](CO)[C@@H](O)[C@H](O)[C@@H]1O [ML, 3-octadecanoylamino-α-D mannopyranoside]	
